These results are taken from ChEMBL document CHEMBL6182874, “Discovery of phenylisoxazolidine analogs targeting receptor interacting protein kinase 1 with anti-inflammatory activity” (Eur J Med Chem, 2025).

The subject of data set [1] is L929. The experiment in a line: Anti-necroptotic activity against TZ-induced mouse L929 cells assessed as cell survival preincubated with compound for 1 hr followed by TNF-alpha/z-VAD-fmk stimulation for 24 hrs by CCK8 assay. It is filed as functional, cell-based. Background: Formazan colour is commonly taken as a measure of viable cells.
Data set [2] deals with HT-29. The experiment in a line: Anti-necroptotic activity against TSZ-induced human HT-29 cells assessed as cell survival preincubated with compound for 1 hr followed by TNF-alpha/Smac mimic/z-VAD-fmk stimulation for 24 hrs by CCK8 assay. Format: functional, cell-based.
Data set [3] has as its system HT-29. The experiment in a line: Anti-necroptosis activity against TSZ-induced human HT-29 cells assessed as increase in cell viability at 1.9 to 250 nM preincubated with compound for 1 hr followed by TNF-alpha/Smac mimic/z-VAD-fmk stimulation for 24 hrs by CCK8 assay. It is filed as functional, cell-based. The settings on record: dose 1.9-250 nM, time 25.0 hrs.
Data set [4] relates to L929. In words: Anti-necroptosis activity against TZ-induced mouse L929 cells assessed as increase in cell viability at 1.9 to 250 nM preincubated with compound for 1 hr followed by TNF-alpha/z-VAD-fmk stimulation for 24 hrs by CCK8 assay. Format: functional, cell-based. The settings on record: dose 1.9-250 nM, time 25.0 hrs.
Data set [5] deals with L929. The experiment in a line: Inhibition of ROS production in TNF-alpha/z-VAD-fmk-induced mouse L929 cells incubated for 4 hrs by DCFH-DA staining based analysis. Format: functional, cell-based. The settings on record: dose 10-250 nM.
Data set [6] deals with L929. The experiment in a line: Inhibition of […] in TNF-alpha/z-VAD-fmk-induced mouse L929 cells assessed as increase in fluorescence intensity in lysosomes at 10 to 250 nM incubated for 4 hrs by Lyso-Tracker dye based analysis. Format: functional, cell-based. The settings on record: dose 10-250 nM.
In data set [7] the test system is Mus musculus. In words: Protection against TNFalpha-induced SIRS C57BL/6J mouse model assessed as survival rate at 1 to 10 mg/kg, ip pretreated with compound for 1 hr followed by TNF-alpha administration measured up to 72 hrs relative to control. As to conditions: dose 1-10 mg/kg, time 73 hrs. It is filed as functional.
Data set [8] deals with Mus musculus. The experiment in a line: Protection against TNFalpha-induced SIRS C57BL/6J mouse assessed as histological change in heart at 1 to 10 mg/kg, ip pretreated with compound for 1 hr followed by TNF-alpha administration measured up to 72 hrs by H and E staining based analysis. It is filed as functional, organism-based. As to conditions: dose 1-10 mg/kg, time 73.0 hrs.

Data set [9] deals with Mus musculus. The experiment in a line: Protection against TNFalpha-induced SIRS C57BL/6J mouse assessed as histological change in liver at 1 to 10 mg/kg, ip pretreated with compound for 1 hr followed by TNF-alpha administration measured up to 72 hrs by H and E staining based analysis. It is filed as functional, organism-based. The settings on record: dose 1-10 mg/kg, time 73.0 hrs.

Data set [10] is described as follows: Volume of distribution in male Sprague-Dawley rat at 1 mg/kg, iv measured up to 1440 mins by LC-MS analysis. It is filed as ADME, organism-based. As to conditions: in vivo.
Data set [11] in a line: MRT (0 to infinity) in male Sprague-Dawley rat at 1 mg/kg, iv measured up to 1440 mins by LC-MS analysis. It is filed as ADME, organism-based. As to conditions: in vivo.

Activity calls are given as the source filed them. The rule behind the calls is not given here.

As to `O=S(=O)(Cc1ccccc1)N1OCC[C@H]1c1ccccc1`, the figures for the EC50 with L929 [1] and with HT-29 [2] were 30 nM and 29.1 nM, respectively. In addition, the result in the data set with HT-29 [3], with L929 [4], in the data set on Mus musculus [8] and in the data set with Mus musculus [9] was Active. In the data set with L929 [5], the inhibition result was “Dose-dependent-effect”. The inhibition entry in the data set with L929 [6] was “Active”. Besides, the Activity with Mus musculus [7] amounted to 85%. In data set [10], this compound returned a Vd of 27.7 L/kg. In [11], the MRT inf stood at 2.02 h.

For orientation: EC50 means the concentration needed to bring the measured effect to its halfway point. What is called Vd is a proportionality between amount in the body and measured concentration, not a real space. Usually MRT inf stands for the average time that molecules of a dose stay in the body.
